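Five compound concentrations were applied to cells in 96-well plates for 48 hours; endpoints were derived by simple linear interpolation of the resulting dose-response curve. Abbreviation: GI50, concentration required for 50% inhibition of growth.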 Active and inactive are the calls of the source. Cut-off read from the data, not from the text of the source: active = GI50 up to about 1.1 µM and inactive = higher.
Columns and labels:
Assay in all cases: NCI anticancer screen, dose series, 48 h
786-0 = system: 786-0
A498 = system: A498
A549 = system: A549
ACHN = system: ACHN
CAKI-1 = system: CAKI-1
CCRF-CEM = system: CCRF-CEM
COLO 205 = system: COLO 205
DLD-1 = system: DLD-1
DMS-273 = system: DMS-273
HCC 2998 = system: HCC 2998
HCT-116 = system: HCT-116
HCT-15 = system: HCT-15
HL-60 = system: HL-60
HOP-18 = system: HOP-18
HOP-62 = system: HOP-62
HOP-92 = system: HOP-92
HT-29 = system: HT-29
IGROV-1 = system: IGROV-1
K562 = system: K562
KM-20L2 = system: KM-20L2
LOX IMVI = system: LOX IMVI
LXFL 529 = system: LXFL 529
M14 = system: M14
M19-MEL = system: M19-MEL
MOLT-4 = system: MOLT-4
Malme-3M = system: Malme-3M
NCI-H226 = system: NCI-H226
NCI-H23 = system: NCI-H23
NCI-H460 = system: NCI-H460
OVCAR-3 = system: OVCAR-3
OVCAR-4 = system: OVCAR-4
OVCAR-5 = system: OVCAR-5
OVCAR-8 = system: OVCAR-8
RPMI-8226 = system: RPMI-8226
SF-268 = system: SF-268
SF-295 = system: SF-295
SK-MEL-28 = system: SK-MEL-28
SK-MEL-5 = system: SK-MEL-5
SK-OV-3 = system: SK-OV-3
SN12C = system: SN12C
SNB-19 = system: SNB-19
SR = system: SR
SW-620 = system: SW-620
TK-10 = system: TK-10
U-251 = system: U-251
UACC-257 = system: UACC-257
UACC-62 = system: UACC-62
UO-31 = system: UO-31

CCCCCCCCOCC(O)COC(C)C (stereo not drawn)
GI50 (786-0): 45.7 µM (inactive) | GI50 (A498): 68.9 µM (inactive) | GI50 (A549): 41.6 µM (inactive) | GI50 (ACHN): 97.9 µM (inactive) | GI50 (CAKI-1): 43.1 µM (inactive) | GI50 (CCRF-CEM): 20.9 µM (inactive) | GI50 (COLO 205): 40 µM (inactive) | GI50 (DLD-1): 89.7 µM (inactive) | GI50 (DMS-273): 16.7 µM (inactive) | GI50 (HCC 2998): 26.6 µM (inactive) | GI50 (HCT-116): 53.1 µM (inactive) | GI50 (HCT-15): 27.4 µM | GI50 (HL-60): 14.9 µM (inactive) | GI50 (HOP-18): > 100 µM (inactive) | GI50 (HOP-62): 91.8 µM (inactive) | GI50 (HOP-92): 13.7 µM (inactive) | GI50 (HT-29): 50.7 µM (inactive) | GI50 (IGROV-1): > 100 µM (inactive) | GI50 (K562): 28.1 µM (inactive) | GI50 (KM-20L2): 85.1 µM (inactive) | GI50 (LOX IMVI): 25.8 µM (inactive) | GI50 (LXFL 529): 93.8 µM (inactive) | GI50 (M14): 56.4 µM (inactive) | GI50 (M19-MEL): 45.5 µM (inactive) | GI50 (MOLT-4): 17 µM (inactive) | GI50 (Malme-3M): 61.7 µM (inactive) | GI50 (NCI-H226): 70 µM (inactive) | GI50 (NCI-H23): 25.7 µM (inactive) | GI50 (NCI-H460): 42.6 µM (inactive) | GI50 (OVCAR-3): 16.2 µM (inactive) | GI50 (OVCAR-4): 41.4 µM (inactive) | GI50 (OVCAR-5): > 100 µM (inactive) | GI50 (OVCAR-8): 70 µM (inactive) | GI50 (RPMI-8226): 22.8 µM (inactive) | GI50 (SF-268): 39.1 µM (inactive) | GI50 (SF-295): 58.7 µM (inactive) | GI50 (SK-MEL-28): > 100 µM (inactive) | GI50 (SK-MEL-5): 26.2 µM (inactive) | GI50 (SK-OV-3): > 100 µM (inactive) | GI50 (SN12C): 24.2 µM (inactive) | GI50 (SNB-19): 74.6 µM (inactive) | GI50 (SR): 17 µM (inactive) | GI50 (SW-620): 59.8 µM (inactive) | GI50 (TK-10): > 100 µM (inactive) | GI50 (U-251): 89.3 µM (inactive) | GI50 (UACC-257): 27.9 µM (inactive) | GI50 (UACC-62): 91.4 µM (inactive) | GI50 (UO-31): 41.3 µM (inactive)

From ChEMBL document CHEMBL1201862, “PubChem BioAssay data set” (2004)
